Results taken from patent US9408853B2, “Iridium/rhodium anti-cancer compounds” (University of Warwick, priority 2010, dated 2016).

Columns and labels:
[1] = test system: human ovarian A2780 cancer cells; assay: Cancer cell cytotoxicity, SRB assay; format: cell-based; settings: 24 h exposure, 72 h recovery, SRB; read-out: A2780 IC50
Experimental: Cancer Cell Cytotoxicity. After plating, human ovarian A2780 cancer cells were treated with Ir^III complexes on day 3 at concentrations ranging from 0.5 μM to 100 μM. Solutions of the Ir^III complexes were made up in 0.125% DMSO to assist dissolution. Stock solutions of the IrIII complexes were firstly prepared in DMSO to assist dissolution, and then diluted into 0.9% saline and medium. After plating 5000 A2780 cells per well on day 1, IrIII complexes were added to the cancer cells on day 3 at concentrations ranging from 0.05 μM to 100 μM. Cells were exposed to the complexes for 24 h, washed, supplied with fresh medium, allowed to grow for three doubling times (72 h), and then the protein content measured (proportional to cell survival) using the sulforhodamine B (SRB) assay.^15 […]. The standard errors are based on two independent experiments of three replicates each.

[2] = Kinetics of hydrolysis followed by 1H NMR; format: physicochemical; settings: for k (hydrolysis): 0.2 mM, 5% MeOD-d4/95% D2O, pH* 3; for Ea (Arrhenius activation energy of hydrolysis): from Arrhenius plot; for ΔH^‡ (activation enthalpy of hydrolysis) / ΔS^‡ (activation entropy of hydrolysis): from Eyring plot; for rate of hydrolysis (in words): 1H NMR, even at 278K
Experimental: Kinetics for Hydrolysis. Although complexes ZL01-ZL04, ZL07, ZL38 and ZL43 hydrolyzed too rapidly to monitor by ^1H NMR, The kinetics of hydrolysis for complexes ZL25, ZL33, ZL37 and ZL54 were followed by ^1H NMR at different temperatures. For this, solutions of the complexes with a final concentration of 0.2 mM in 5% MeOD-d4/95% D2O (v/v) were prepared by dissolution of the complexes in MeOD-d4 followed by rapid dilution using D2O with a pH* of about 3 (acidified with HClO4), so that the aqua ligand was not deprotonated. ^1H NMR spectra were taken after various time intervals. The rates of hydrolysis were determined by fitting plots of concentrations (determined from ^1H NMR peak integrals) versus time to a pseudo first-order equation using ORIGIN version 7.0. The Arrhenius activation energy (Ea), activation enthalpies (ΔH^¢), and activation entropy (ΔS^‡) for compounds ZL25, ZL33, ZL37 and ZL54 were determined from the slopes of the Arrhenius and intercepts of Eyring plots.
The rates of hydrolysis of compounds ZL01-ZL04, ZL07, ZL25, ZL33, ZL37, ZL38, ZL43 and ZL54 in a 5% MeOD-d4/95% D2O were monitored by ^1H NMR at different temperature from 278 to 298 K by the observation of new peaks over time due to aqua adduct formation. Five percent MeOD was used to improve solubility, and acidic conditions (D2O, pH* 3) were used to prevent the deprotonation of the aqua complex as a secondary reaction. […] The percentage of aqua peak formation for ZL25, ZL33, ZL37 and ZL54 was plotted against time and was fitted to pseudofirst order kinetics (FIG. 3), and their halflife times were calculated (Table 1). The Arrhenius activation energy (Ea), activation enthalpy (ΔH^¢), and activation entropy (ΔS^‡) of compound ZL25, ZL33, ZL37 and ZL54 are listed in Table 4. The large negative ΔS^‡value for compound ZL54 is notable. The extent of hydrolysis at equilibrium is medium for all compounds, ranged from 30% to 60%.

9-ethylguanine (9-EtG) = assay: Interactions with nucleobases: 9-EtG adduct formation (1H NMR); format: binding; settings: 1 mM, 1 mol equiv 9-EtG (ZL33A: 2 mol equiv), D2O, 310 K
Experimental: (§1) Interactions with Nucleobases. The reaction of ZL01, ZL03, ZL04, ZL07, ZL25, ZL33, ZL37, ZL38, ZL43 and ZL54 and ZL33A with nucleobases typically involved addition of a solution containing 1-2 mol equiv of nucleobase in D2O, to an equilibrium solution of ZL01, ZL03, ZL04, ZL07, ZL25, ZL33, ZL37, ZL38, ZL43, ZL54 and ZL33A in a solution of 5% MeOD-d4/95% D2O (v/v). ^1H NMR spectra of these solutions were recorded at 310 K after various time intervals.
(§2) Since DNA is a potential target site for transition metal anticancer complexes,^18 nucleobase binding reactions of compounds ZL01, ZL03, ZL04, ZL07, ZL25, ZL33, ZL33A, ZL37, ZL38, ZL43 and ZL54 with nucleobase models 9-ethylguanine (9-EtG) and 9-ethyladenine (9-EtA), were investigated. Solutions of ZL01, ZL03, ZL04, ZL07, ZL25, ZL33, ZL37, ZL38, ZL43 and ZL54 (1 mM) (containing an equilibrium mixture of these complexes and their respective aqua adducts) with 1 mol equivalent of 9-EtG or 9-EtA in D2O were prepared, and ^1H NMR spectra were recorded at different time intervals.
Interactions with Nucleobases. Since DNA is a potential target site for transition metal anticancer complexes,^23 the binding of 9-ethylguanine (9-EtG) to complexes ZL47, ZL49, ZL69, ZL74 and ZL107 was studied.

9-ethyladenine (9-EtA) = assay: Interactions with nucleobases: 9-EtA adduct formation (1H NMR); format: binding; settings: 1 mM, 1 mol equiv 9-EtA, D2O, 310 K
Experimental: as §1, §2

SW480 cancer cell line = assay: Cytotoxicity, MTT assay (Brabec group); format: cell-based; settings: for IC50: 72 h incubation, MTT; for cytotoxicity towards SW480 (in words): highest test concentration 130 μM
Experimental: (§3) The cytotoxicity test of ZL07, ZL33, ZL38 and ZL54 against A2780, SW480, A549 and CH1 cell lines was performed by Viktor Brabec group (Institute of Biophysics, Academy of Sciences of the Czech Republic). After plating, the cells were treated with ZL07, ZL33, ZL38 and ZL54. After 72h of incubation 10 μl of MTT (2.5 mg/ml; CALBIOCHEM) was added to each well and incubated for 4 h in culture conditions. At the end of the incubation period the medium was removed and the formazan product was dissolved in 100 μl DMSO. The cell viability was evaluated by measurement of the absorbance at 570 nm, using an Absorbance Reader SUNRICE TECAN SCHOELLER. […] All experiments were made in quadruplicate.

A549 cancer cell line = assay: Cytotoxicity, MTT assay (Brabec group); format: cell-based; settings: for IC50: 72 h incubation, MTT
Experimental: as §3

CH1 cancer cell line = assay: Cytotoxicity, MTT assay (Brabec group); format: cell-based; settings: for IC50: 72 h incubation, MTT; for cytotoxicity towards CH1 (in words): highest test concentration 130 μM
Experimental: as §3

[3] = test system: ca. 60 cell lines within nine tumour type subpanels; format: cell-based
Text: Six complexes, [(η^5-C5Me4C6H4C6H5)Ir(bpy)Cl]PF6 (ZL25, bpy=2,2′-bipyridine), [(η^5-C5Me4C6H5)Ir(phen)Cl]PF6 (ZL33, phen=1,10-phenanthroline), [(η^5-C5Me4C6H4C6H5) Ir(pico)Cl] (ZL43, pico=picolinate), [(η^5-C5Me5)Ir(2-phpy)Cl] (ZL47), [(η^5-C5Me4C6H4C6H5)Ir(2-phPY)(D2O)Cl] (ZL49) and [(η^5-C5Me4C6H4C6H5) Ir(phen)Cl]PF6 (ZL54), were selected by Developmental Therapeutics Program of National Cancer Institute (NCI, U.S.A.) for in vitro screening test, in which 5 complexes except ZL43 are selected for further testing. The five complexes were tested on ca. 60 cell lines within nine tumour type subpanels at five concentrations ranging from 0.01 to 100 μM.

| SMILES | IC50 [1] | k (hydrolysis) ([2]; 278 K) | Ea (Arrhenius activation energy of hydrolysis) [2] | ΔH^‡ (activation enthalpy of hydrolysis) [2] | ΔS^‡ (activation entropy of hydrolysis) [2] | Reaction with 9-EtG, extent of adduct formation (9-ethylguanine (9-EtG); 10 min) | Reaction with 9-EtA, extent of adduct formation (9-ethyladenine (9-EtA); 10 min) | Reaction with 9-EtA, extent of adduct formation (9-ethyladenine (9-EtA); 24 h) | rate of hydrolysis (in words) [2] | Reaction with 9-EtG, extent of adduct formation (9-ethylguanine (9-EtG); 24 h) | IC50 (SW480 cancer cell line) | IC50 (A549 cancer cell line) | IC50 (CH1 cancer cell line) | further results |
| --- | --- | --- | --- | --- | --- | --- | --- | --- | --- | --- | --- | --- | --- | --- |
| Cc1c(C)c(-c2ccccc2)[c-](C)c1C.F[P-](F)(F)(F)(F)F.[Cl-].[Ir+3].c1ccc(-c2ccccn2)nc1 (stereo not shown) [ZL37, [(η^5-C5Me4C6H5)Ir(bipy)Cl]PF6] | 15.9 µM | 0.0341 min⁻¹ | 19.7 kcal/mol | 19.1 kcal/mol | 14.7 J K^−1mol^−1 | 18.6% | 0% | 0% |  |  |  |  |  | k (hydrolysis) ([2]; 283 K): 0.0652 min⁻¹; k (hydrolysis) ([2]; 288 K): 0.1229 min⁻¹ |
| Cc1c(C)c(-c2ccc(-c3ccccc3)cc2)[c-](C)c1C.O=C([O-])c1ccccn1.[Cl-].[Ir+3] (stereo not shown) [ZL43, [(η^5-C5Me4C6H4C6H5)Ir(η^2—C5H4N-2-CO2)Cl]] | 16.3 µM |  |  |  |  | 100% | 71% | 71% | too rapid to be observed | 100% |  |  |  |  |
| N.N.[Cl][Pt][Cl] [Cisplatin, reference compound] | 1.2 µM |  |  |  |  |  |  |  |  |  | 9.24 ± 1.1 µM | 5.9 ± 1.9 µM | 0.59 ± 0.1 µM |  |
| Cc1c(C)c(-c2ccc(-c3ccccc3)cc2)[c-](C)c1C.F[P-](F)(F)(F)(F)F.[Cl-].[Ir+3].c1cnc2c(c1)ccc1cccnc12 (stereo not shown) [ZL54, [(η^5-C5Me4C6H4C6H5)Ir(phen)Cl]PF6] | 0.72 µM | 0.0179 min⁻¹ | 10.9 kcal/mol | 10.4 kcal/mol | −121.2 J K^−1mol^−1 | 62.2% | 0% | 0% |  |  | 1.38 ± 0.2 µM | 1.58 ± 0.4 µM | 0.69 ± 0.04 µM | k (hydrolysis) ([2]; 288 K): 0.0352 min⁻¹; k (hydrolysis) ([2]; 293 K): 0.0516 min⁻¹; times more active than cisplatin (SW480 cancer cell line; SW480): about 6.7 times; times more active than cisplatin (A549 cancer cell line; A549): ~3.7 times |
| Cc1c(C)c(-c2ccc(-c3ccccc3)cc2)[c-](C)c1C.F[P-](F)(F)(F)(F)F.[Cl-].[Ir+3].c1ccc(-c2ccccn2)nc1 (stereo not shown) [ZL25, [(η^5-C5Me4C6H4C6H5)Ir(bipy)Cl]PF6] | 0.57 µM | 0.0249 min⁻¹ | 14.4 kcal/mol | 13.9 kcal/mol | −66.02 J K^−1mol^−1 | 24.2% | 0% | 0% |  |  |  |  |  | CC50 [3]: 67.6 µM; Mean graph midpoint (MID) TGI ([3]; ca. 60 cell lines, 0.01 to 100 μM): 19.1 µM; GI50 ([3]; ca. 60 cell lines, 0.01 to 100 μM, read-out: Mean graph midpoint (MID) GI50): 4.1 µM; selectivity among tumour type subpanels (in words) ([3]; mean graphs): selectivity with higher activity not only towards leukemia, CNS cancer, melanoma, and prostate cancer, but also against colon cancer and breast cancer; k (hydrolysis) ([2]; 283 K): 0.0405 min⁻¹; k (hydrolysis) ([2]; 293 K): 0.0986 min⁻¹ |
| Cc1c(C)c(C)[c-](C)c1C.[Cl-].[Cl-].[Ir+3].c1cnc2c(c1)ccc1cccnc12 [ZL07, [(η^5-C5Me5)Ir(phen)Cl]Cl] | > 100 µM |  |  |  |  | 73.1% | 0% | 0% | too rapid to be observed |  | 80.1 ± 1.5 µM | > 130 µM | 50.7 ± 2.8 µM | cytotoxicity towards SW480 (in words) (SW480 cancer cell line): moderate activity; cytotoxicity towards CH1 (in words) (CH1 cancer cell line): moderate activity |
| Cc1c(C)c(C)[c-](C)c1C.F[P-](F)(F)(F)(F)F.NCCN.[Cl-].[Ir+3] [ZL01, [(η^5-C5Me5)IrCl(H2NCH2CH2NH2—N,N)]PF6] | > 100 µM |  |  |  |  | 100% | 0% | 0% |  | 100% |  |  |  |  |
| Cc1c(C)c(-c2ccccc2)[c-](C)c1C.O=C([O-])c1ccccn1.[Cl-].[Ir+3] (stereo not shown) [ZL38, [(η^5-C5Me4C6H5)Ir(η^2-C5H4N-2-CO2)Cl]] | > 100 µM |  |  |  |  | 100% | 76.0% | 76.0% | too rapid to be observed | 100% | > 130 µM | > 130 µM | > 130 µM | cytotoxicity towards SW480 (in words) (SW480 cancer cell line): nontoxic; cytotoxicity towards A549 (in words) (A549 cancer cell line; highest test concentration 130 μM): nontoxic; cytotoxicity towards CH1 (in words) (CH1 cancer cell line): nontoxic |
